In patent US20050113450A1, “Antibacterial agents” (priority 2002, published 2005) one finds MIC data, which are given here for 63 compounds.

SMILES strings stand for the structures. ≈ marks a conversion by molar mass, not a printed value.

This test has as its system SA 9218. Description: MIC by standard agar dilution method. As to conditions: Mueller Hinton agar, 10^4 to 10^5 cells per spot, incubated overnight at 35° C., lowest concentration that inhibits visible growth. The format is cell-based. The text has this:
The antibacterial agents of this invention have useful activity against a variety of organisms. The in vitro activity of compounds of this invention can be assessed by standard testing procedures such as the determination of minimum inhibitory concentration (MIC) by agar dilution as described in “Approved Standard. Methods for Dilution Antimicrobial Susceptibility Tests for Bacteria That Grow Aerobically”, 3rd. ed., published 1993 by the National Committee for Clinical Laboratory Standards, Villanova, Pa., USA. The in vitro MICs of test compounds were determined by a standard agar dilution method. A stock drug solution of each analog was prepared in the preferred solvent, usually DMSO:H2O (1:3). Serial 2-fold dilutions of each sample are made using 1.0 ml aliquots of sterile distilled water. To each 1.0 ml aliquot of drug was added 9 ml of molten Mueller Hinton agar medium. The drug-supplemented agar was mixed, poured into 15×100 mm petri dishes, and allowed to solidify and dry prior to inoculation. Vials of each of the test organisms are maintained frozen in the vapor phase of a liquid nitrogen freezer. Test cultures are grown overnight at 35° C. on the medium appropriate for the organism. Colonies are harvested with a sterile swab, and cell suspensions are prepared in Trypticase Soy broth (TSB) to equal the turbidity of a 0.5 McFarland standard. A 1:20 dilution of each suspension was made in TSB. The plates containing the drug supplemented agar are inoculated with a 0.001 ml drop of the cell suspension using a Steers replicator, yielding approximately 10^4 to 10^5 cells per spot. The plates are incubated overnight at 35° C. Following incubation the Minimum Inhibitory Concentration (MIC μg/ml), the lowest concentration of drug that inhibits visible growth of the organism, was read and recorded.
On the technique in general: In agar dilution, organisms are placed on agar that contains the substance at set levels.

For the compound `O=C(Nc1ccc(-c2cccs2)cc1C(=O)O)c1ccc(S(=O)(=O)N2CCc3ccccc32)cc1`, it took 4 µg/mL (≈ 7.93 µM) to inhibit growth (MIC).
Under `CCCC(=O)c1ccc(NC(=O)c2ccc(S(=O)(=O)N3CCc4ccc(Cl)cc43)cc2)c(C(=O)O)c1` stands 16 µg/mL (≈ 30.4 µM); under `O=C(Nc1ccc(C(=NO)c2ccccc2)cc1C(=O)O)c1ccc(S(=O)(=O)N2CCc3ccccc32)cc1`, 128 µg/mL (≈ 236 µM).
The compound `CCON=C(c1ccccc1)c1ccc(NC(=O)c2ccc(S(=O)(=O)N3CCc4ccccc43)cc2)c(C(=O)O)c1` came in with an MIC of 16 µg/mL (≈ 28.1 µM).
Under `CCON=C(c1ccc(NC(=O)c2ccc(S(=O)(=O)N3CCc4ccccc43)cc2)c(C(=O)O)c1)C(C)C` stands 64 µg/mL (≈ 119 µM); under `O=C(Nc1ccc(I)cc1C(=O)O)c1ccc(S(=O)(=O)N2CCSC2)cc1`, 32 µg/mL (≈ 61.7 µM).
Next, `O=C(Nc1ccc(I)cc1C(=O)O)c1ccc(S(=O)(=O)N2CC=CC2)cc1`: 32 µg/mL (≈ 64.2 µM); `N#CC1(c2ccccc2)CCN(S(=O)(=O)c2ccc(C(=O)Nc3ccc(I)cc3C(=O)O)cc2)CC1`: 4 µg/mL (≈ 6.5 µM); `COC(=O)CCCC(=O)c1ccc(NC(=O)c2cccc(S(=O)(=O)N3CCc4ccc(Cl)cc43)c2)c(C(=O)O)c1`: 64 µg/mL (≈ 109 µM).
`O=C(Nc1ccc(C(=O)C2CCCC2)cc1C(=O)O)c1cccc(S(=O)(=O)N2CCc3ccc(Cl)cc32)c1` yielded an MIC of 32 µg/mL (≈ 57.9 µM).
As to `COC(=O)CCCC(=O)c1ccc(NC(=O)c2cccc(S(=O)(=O)N3CCSC3)c2)c(C(=O)O)c1`, the MIC is above 128 µg/mL.
Next, `O=C(Nc1ccc(I)cc1C(=O)O)c1cccc(S(=O)(=O)N2CCSC2)c1`: 8 µg/mL (≈ 15.4 µM); `O=C(Nc1ccc(I)cc1C(=O)O)c1cccc(S(=O)(=O)N2CC=CC2)c1`: 8 µg/mL (≈ 16.1 µM); `O=C(Nc1ccc(I)cc1C(=O)O)c1cccc(S(=O)(=O)N2CCN(c3ccccn3)CC2)c1`: 32 µg/mL (≈ 54 µM).
`CCCCCC(=O)c1ccc(NC(=O)c2ccc(S(=O)(=O)N3CCc4ccc(Cl)cc43)cc2)c(C(=O)O)c1` gave a minimum inhibitory concentration (MIC) of 8 µg/mL (≈ 14.4 µM).
With `O=C(Nc1ccc(C(=O)C2CCCC2)cc1C(=O)O)c1ccc(S(=O)(=O)N2CCc3ccc(Cl)cc32)cc1`, 16 µg/mL (≈ 28.9 µM) was the least that counted as inhibitory (MIC).
`O=C(Nc1ccc(Cl)cc1C(=O)O)c1cccc(I)c1` gave an MIC of 8 µg/mL (≈ 19.9 µM). This MIC lies about 2-fold lower than the previous one.
Next, `O=C(Nc1ccc(Cl)cc1C(=O)O)c1ccc(I)cc1`: 2 µg/mL (≈ 4.98 µM).
`O=C(Nc1ccc(Cl)cc1C(=O)O)c1ccc(I)c(I)c1` came in with an MIC of 2 µg/mL (≈ 3.79 µM).
For `O=C(Nc1ccc(Cl)cc1C(=O)O)c1ccccc1`, the minimal inhibitory concentration (MIC) is 128 µg/mL (≈ 464 µM). This MIC lies about 64-fold higher than the previous one.
Next, `O=C(Nc1ccc(Cl)cc1C(=O)O)c1ccc(C(=O)c2ccccc2)cc1`: 4 µg/mL (≈ 10.5 µM).
Under `CCCCCC(=O)c1cccc(C(=O)Nc2ccc(Cl)cc2C(=O)O)c1` stands 8 µg/mL (≈ 21.4 µM).
Regarding `CCCCCC(=O)c1ccc(C(=O)Nc2ccc(Cl)cc2C(=O)O)cc1`, the minimal inhibitory concentration (MIC) was found to be 4 µg/mL (≈ 10.7 µM).
`COc1cc(C(=O)c2cccc(C(=O)Nc3ccc(Cl)cc3C(=O)O)c2)cc(OC)c1OC` displayed an MIC of 32 µg/mL (≈ 68.1 µM).
Under `O=C(Nc1ccc(Cl)cc1C(=O)O)c1cccc(C(=O)c2ccc(Cl)cc2)c1` stands 4 µg/mL (≈ 9.66 µM); under `O=C(Nc1ccc(Cl)cc1C(=O)O)c1cccc(C(=O)C2CCCC2)c1`, 8 µg/mL (≈ 21.5 µM); under `COc1ccc(C(=O)c2cccc(C(=O)Nc3ccc(Cl)cc3C(=O)O)c2)cc1`, 8 µg/mL (≈ 19.5 µM).
Regarding `O=C(Nc1ccc(Cl)cc1C(=O)O)c1cccc(C(=O)c2ccco2)c1`, the MIC was 8 µg/mL (≈ 21.6 µM).
The compound `O=C(COc1ccc(Cl)cc1)c1cccc(C(=O)Nc2ccc(Cl)cc2C(=O)O)c1` yielded a minimal inhibitory concentration (MIC) of 8 µg/mL (≈ 18 µM).
In turn, `CN(C)c1ccc(C(=O)c2cccc(C(=O)Nc3ccc(Cl)cc3C(=O)O)c2)cc1` had a minimum inhibitory concentration (MIC) of 4 µg/mL (≈ 9.46 µM).
In turn, `O=C(Nc1ccc(Cl)cc1C(=O)O)c1cccc(C(=O)c2ccc3c(c2)OCO3)c1` showed a minimal inhibitory concentration (MIC) of 4 µg/mL (≈ 9.44 µM).
Next, `COc1ccc(C(=O)c2ccc(C(=O)Nc3ccc(Cl)cc3C(=O)O)cc2)cc1`: 2 µg/mL (≈ 4.88 µM); `COC(=O)C(Oc1ccc(C(=O)Nc2ccc(Br)cc2C(=O)O)cc1)c1ccccc1` (stereo not drawn): 64 µg/mL (≈ 132 µM).
Next, `O=C(NCCOc1ccc(C(=O)Nc2ccc(Br)cc2C(=O)O)cc1)OCc1ccccc1`: 64 µg/mL (≈ 125 µM).
`COc1cc(COc2ccc(C(=O)Nc3ccc(Br)cc3C(=O)O)cc2)cc(OC)c1` displayed an MIC of 8 µg/mL (≈ 16.5 µM).
Turning to `Cc1ccc(S(=O)(=O)Nc2cccc(C(=O)Nc3ccc(Br)cc3C(=O)O)c2)cc1`, the MIC is 0.5 µg/mL (≈ 1.02 µM).
`Cc1ncsc1CCOc1ccc(C(=O)Nc2ccc(Br)cc2C(=O)O)cc1` registered an MIC of 32 µg/mL (≈ 69.4 µM).
For the compound `O=C(Nc1ccc(Br)cc1C(=O)O)c1ccc(OCCN2CCCC2=O)cc1`, the minimal inhibitory concentration (MIC) is above 128 µg/mL.
In the case of `O=C(Nc1ccc(Cl)cc1C(=O)O)c1ccc(C(=NOCc2ccccc2)c2ccco2)cc1`, the MIC was 32 µg/mL (≈ 67.4 µM).
Consider `O=C(Nc1ccc(Br)cc1C(=O)O)c1ccc(OCC2CCOC2)cc1` (stereo not drawn), for which it took 128 µg/mL (≈ 305 µM) to inhibit growth (MIC).
Take `O=C(Nc1ccc(Cl)cc1C(=O)O)c1cccc(C(NCc2cccc(Cl)c2)c2ccco2)c1` (stereo not drawn): the MIC worked out at 8 µg/mL (≈ 16.1 µM).
`O=C(Nc1ccc(Cl)cc1C(=O)O)c1cccc(C(NCc2cccc(Cl)c2)c2ccccc2)c1` (stereo not drawn) yielded a minimum inhibitory concentration (MIC) of 16 µg/mL (≈ 31.7 µM).
As to `CON=C(c1cccc(C(=O)Nc2ccc(Cl)cc2C(=O)O)c1)c1ccco1`, the minimal inhibitory concentration (MIC) worked out at 16 µg/mL (≈ 40.1 µM).
As to `O=C(Nc1ccc(Cl)cc1C(=O)O)c1cccc(C(NC2CCc3ccccc32)c2ccccc2)c1` (stereo not drawn), the MIC amounted to 16 µg/mL (≈ 32.2 µM).
For `CCC(CC)C(=O)c1cccc(C(=O)Nc2ccc(Cl)cc2C(=O)O)c1`, the MIC is 8 µg/mL (≈ 21.4 µM). This MIC lies about 2-fold lower than the previous one.
Turning to `CCCNC(c1cccc(C(=O)Nc2ccc(Cl)cc2C(=O)O)c1)c1ccco1` (stereo not drawn), the minimal inhibitory concentration (MIC) amounted to 16 µg/mL (≈ 38.8 µM). This MIC lies about 2-fold higher than the previous one.
`O=C(Nc1ccc(Cl)cc1C(=O)O)c1cccc(C(=O)C2CCOC2)c1` (stereo not drawn): the MIC came to 128 µg/mL (≈ 342 µM).
Under `CCCNC(c1ccccc1)c1cccc(C(=O)Nc2ccc(Cl)cc2C(=O)O)c1` (stereo not drawn) stands 8 µg/mL (≈ 18.9 µM); under `O=C(Nc1ccc(Cl)cc1C(=O)O)c1cccc(C(=NO)c2cccnc2)c1`, 4 µg/mL (≈ 10.1 µM); under `O=C(Nc1ccc(Cl)cc1C(=O)O)c1cccc(C(NC2CCCC2)c2ccccc2)c1` (stereo not drawn), 4 µg/mL (≈ 8.91 µM).
With `CCCNC(c1cccc(C#N)c1)c1cccc(C(=O)Nc2ccc(Cl)cc2C(=O)O)c1` (stereo not drawn), the MIC was determined as 8 µg/mL (≈ 17.9 µM).
In turn, `O=C(Nc1ccc(Cl)cc1C(=O)O)c1cccc(C(=O)C2CCCO2)c1` (stereo not drawn) had an MIC of 64 µg/mL (≈ 171 µM).
`CCCNC(c1cccc(C(=O)Nc2ccc(Cl)cc2C(=O)O)c1)c1cccc(S(C)(=O)=O)c1` (stereo not drawn): the minimum inhibitory concentration (MIC) was 32 µg/mL (≈ 63.9 µM). Against the preceding compound, the MIC is about 2-fold lower.
Under `CS(=O)(=O)c1cccc(C(=O)c2cccc(C(=O)Nc3ccc(Cl)cc3C(=O)O)c2)c1` stands 16 µg/mL (≈ 34.9 µM); under `CCC(CC)C(=O)c1ccc(C(=O)Nc2ccc(Cl)cc2C(=O)O)cc1`, 4 µg/mL (≈ 10.7 µM); under `O=C(Nc1ccc(Cl)cc1C(=O)O)c1cccc(C(=NO)C2CCCO2)c1` (stereo not drawn), 16 µg/mL (≈ 41.2 µM).
Compound `O=C(Nc1ccc(Cl)cc1C(=O)O)c1ccc(C(=O)c2c[nH]c3ccccc23)cc1` showed an MIC of 8 µg/mL (≈ 19.1 µM).
The compound `CCCNC(c1cccnc1)c1cccc(C(=O)Nc2ccc(Cl)cc2C(=O)O)c1` (stereo not drawn) yielded a minimal inhibitory concentration (MIC) of 8 µg/mL (≈ 18.9 µM).
Regarding `N#Cc1cccc(C(=NO)c2ccc(C(=O)Nc3ccc(Cl)cc3C(=O)O)cc2)c1`, the MIC was found to be 8 µg/mL (≈ 19.1 µM).
Consider `O=C(Nc1ccc(Cl)cc1C(=O)O)c1ccc(C(=NO)c2cccnc2)cc1`, for which inhibition of growth (MIC) required 32 µg/mL (≈ 80.8 µM).
In the case of `CCOCC(=O)c1ccc(C(=O)Nc2ccc(Cl)cc2C(=O)O)cc1`, the MIC amounted to 16 µg/mL (≈ 44.2 µM).
Next, `CS(=O)(=O)c1cccc(C(=NO)c2ccc(C(=O)Nc3ccc(Cl)cc3C(=O)O)cc2)c1`: 16 µg/mL (≈ 33.8 µM); `CS(=O)(=O)c1cccc(C(=O)c2ccc(C(=O)Nc3ccc(Cl)cc3C(=O)O)cc2)c1`: 32 µg/mL (≈ 69.9 µM).

What is called MIC is the least concentration at which growth counts as inhibited. Read a low MIC as greater potency.
